From patent US20020013295A1, “Naaladase inhibitors for treating amyotrophic lateral sclerosis” (priority 2000, published 2002)
Residues, ends and D or L forms follow the SMILES beside them.

What was measured:
transgenic SOD mice = test: Effect of NAALADase inhibitor on onset of clinical disease, transgenic mice model of FALS; assay type: in vivo; settings: for Disease onset for compound treated mice: 50 mg/kg, from one month old
Description: The effect of NAALADase inhibitors on the onset of ALS was tested using the transgenic mice model of familial amyotrophic lateral sclerosis (FALS), which is detailed in Gurney, M., Annals of Neurology (1996) 39:147-157, and otherwise well known in the art. One month old transgenic SOD mice were treated with daily intraperitoneal injections of a vehicle (50 mM HEPES-buffered saline) or a NAALADase inhibitor (50 mg/kg 2-[[(2,3,4,5,6-pentafluorobenzyl)hydroxyphosphinyl]methyl]-pentanedioic acid (“Compound A” )). Clinical symptoms of the mice were monitored daily. The onset of clinical disease was scored by examining each mouse for its shaking of limbs when suspended in the air by its tail, cross spread of spinal reflexes, hindlimb paralysis, body weight and wheel running activity.

NAALADase = NAALADase (Rattus norvegicus, UniProt P70627); settings: NAAG as substrate of NAALADase; cited from earlier work
NAALADase, sequence (P70627 whole entry): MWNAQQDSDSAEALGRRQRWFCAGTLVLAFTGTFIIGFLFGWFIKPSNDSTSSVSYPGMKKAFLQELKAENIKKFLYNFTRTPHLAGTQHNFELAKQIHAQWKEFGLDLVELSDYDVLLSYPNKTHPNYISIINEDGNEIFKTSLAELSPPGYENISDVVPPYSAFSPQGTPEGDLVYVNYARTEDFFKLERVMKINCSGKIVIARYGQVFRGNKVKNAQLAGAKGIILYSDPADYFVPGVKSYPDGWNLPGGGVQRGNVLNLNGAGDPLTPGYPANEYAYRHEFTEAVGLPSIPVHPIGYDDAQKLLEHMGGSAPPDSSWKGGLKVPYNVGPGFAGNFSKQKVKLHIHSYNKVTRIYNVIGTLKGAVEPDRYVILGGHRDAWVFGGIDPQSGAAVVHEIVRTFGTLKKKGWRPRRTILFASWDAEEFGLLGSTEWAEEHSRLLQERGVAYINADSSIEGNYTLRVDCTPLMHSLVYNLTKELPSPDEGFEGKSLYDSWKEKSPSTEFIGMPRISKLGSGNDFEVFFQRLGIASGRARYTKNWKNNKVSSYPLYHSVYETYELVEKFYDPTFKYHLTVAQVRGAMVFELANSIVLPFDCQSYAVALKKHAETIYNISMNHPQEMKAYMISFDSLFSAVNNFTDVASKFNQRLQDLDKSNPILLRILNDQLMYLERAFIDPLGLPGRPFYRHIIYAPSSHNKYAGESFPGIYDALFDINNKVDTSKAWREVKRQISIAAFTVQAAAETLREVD

| Compound | Difference in disease onset, compound treated vs vehicle treated mice (transgenic SOD mice; Study 1) | Disease onset for compound treated mice (transgenic SOD mice; Study 1, daily intraperitoneal injections) | Difference in disease onset, compound treated vs vehicle treated mice (transgenic SOD mice; Study 2) | Disease onset for compound treated mice (transgenic SOD mice; Study 2, daily intraperitoneal injections) | Km (NAALADase) [µM] |
| --- | --- | --- | --- | --- | --- |
| O=C(O)CCC(CCCS)C(=O)O (centres unmarked) [Compound B, 2-(3-sulfanylpropyl)pentanedioic acid] | 32 | 221 days of age | 25 | 166 days of age | – |
| CC(=O)N[C@@H](CC(=O)O)C(=O)N[C@@H](CCC(=O)O)C(=O)O [NAAG, N-acetyl-aspartyl-glutamate] (Ac-Asp-Glu-OH) | – | – | – | – | 0.54 |
